The record followed here is patent publication EP2140864A2 (H. Lundbeck A/S, priority 2001, dated 2002).

For experiment [1], the target named is T1, rat 5HT2C receptor (Rattus norvegicus, UniProt P08909).
T1 construct: expressed in transfected cells
T1 sequence (P08909 33-460): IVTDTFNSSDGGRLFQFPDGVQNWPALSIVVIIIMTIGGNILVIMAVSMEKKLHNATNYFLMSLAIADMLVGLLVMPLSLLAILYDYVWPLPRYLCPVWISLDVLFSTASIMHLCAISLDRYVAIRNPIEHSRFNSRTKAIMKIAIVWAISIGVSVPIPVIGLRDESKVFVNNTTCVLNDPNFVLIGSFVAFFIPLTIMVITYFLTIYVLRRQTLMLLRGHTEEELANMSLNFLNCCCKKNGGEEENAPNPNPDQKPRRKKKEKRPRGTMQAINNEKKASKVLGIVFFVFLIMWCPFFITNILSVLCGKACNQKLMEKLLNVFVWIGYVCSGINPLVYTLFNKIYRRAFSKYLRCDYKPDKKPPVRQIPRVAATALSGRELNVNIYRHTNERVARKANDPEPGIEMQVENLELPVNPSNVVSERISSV
Put plainly: Radioligand binding, 5HT2C receptor. The settings on record: for Ki: Table 7, read-out: r5HT2C Ki; for selectivity ratio r5HT2C: Table 8, Ki r5HT2C divided by Ki hGAL3. The method, then:
Other 5-HT Receptors: Other serotonin receptor binding assays were performed according to published methods: rat 5HT2C receptor (Julius et al., 1988); and 5-HT6 (Monsma, et al., 1993). The binding assays using the 5-HT4 receptor were performed according to the procedures described in U.S. Patent No. 5,766,879, the disclosure of which is hereby incorporated by reference in its entirety into this application.
(§1) Binding data were analyzed using nonlinear regression and statistical techniques available in the GraphPAD Prism package (San Diego, CA). Enzymatic assay data were derived from a standard curve of reference compound data.

Experiment [2] addresses T2, human 5HT7 (Homo sapiens, UniProt P34969).
T2 construct: expressed in transfected cells
Put plainly: Radioligand binding, 5HT7 receptor ([3H]-serotonin). The settings on record: for Ki: Table 7, read-out: h5HT7 Ki; for selectivity ratio h5HT7: Table 8, Ki h5HT7 divided by Ki hGAL3. The method, then: Human 5HT1B, 5HT1D, 5HT1E, 5HT1F, and 5HT7 Receptors: The cell lysates of LM(tk-) clonal cell line stably transfected with the genes encoding each of these 5HT receptor-subtypes were prepared as described above. Cell membranes were suspended in 50mM Tris-HCl buffer (pH 7.4 at 37°C) containing 10 mM MgCl2, 0.2 mM EDTA, 10 µM pargyline, and 0.1% ascorbate. […] Nonspecific binding was determined in the presence of 10 µM serotonin. The bound radioligand was separated by filtration through GF/B filters using a cell harvester.
as §1

The target in experiment [3] is T3, human α1A adrenoceptor (Homo sapiens, UniProt P35348).
T3 construct: expressed in transfected cells
T3 sequence (P35348 1-466): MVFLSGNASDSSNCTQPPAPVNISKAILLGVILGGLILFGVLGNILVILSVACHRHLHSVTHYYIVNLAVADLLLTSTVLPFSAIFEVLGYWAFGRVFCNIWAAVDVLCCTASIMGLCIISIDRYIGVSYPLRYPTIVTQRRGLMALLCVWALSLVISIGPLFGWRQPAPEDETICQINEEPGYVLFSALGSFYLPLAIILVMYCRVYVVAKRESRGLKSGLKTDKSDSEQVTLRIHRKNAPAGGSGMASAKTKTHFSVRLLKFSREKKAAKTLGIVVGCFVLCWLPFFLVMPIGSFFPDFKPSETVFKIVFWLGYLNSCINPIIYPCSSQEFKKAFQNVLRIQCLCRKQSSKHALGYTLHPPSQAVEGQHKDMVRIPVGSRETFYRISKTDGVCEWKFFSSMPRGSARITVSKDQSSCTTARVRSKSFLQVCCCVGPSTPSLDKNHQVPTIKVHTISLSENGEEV
Put plainly: Radioligand binding, α1A adrenergic receptor. The settings on record: for Ki: Table 9, read-out: hα1A Ki; for selectivity ratio hα1A: Table 10, Ki hα1A divided by Ki hGAL3.
Description: (§2) Other receptors: Cell membranes expressing human dopamine D1, D2, D4 and rat D3 receptors were purchased through BioSignal, Inc. (Montreal, Canada). Binding assays using the histamine H1 receptor; dopamine receptors; and α1A, α1E, and α2 adrenergic receptors may be carried out according to the procedures described in U.S. Patent No. 5,780,485, the disclosure of which is hereby incorporated by reference in its entirety into this application. Binding assays using the dopamine D5 receptor may be carried out according to the procedures described in U.S. Patent No. 5,882,855, the disclosure of which is hereby incorporated by reference in its entirety into this application. Binding assays for the human α1D adrenergic receptor may be carried out according to the procedures described in U.S. Patent No. 6,156,518, the disclosure of which is hereby incorporated by reference in its entirety into this application.
as §1

The target of experiment [4] is T4, human α1B adrenoceptor (Homo sapiens, UniProt P35368).
T4 construct: expressed in transfected cells
T4 sequence (P35368 1-520): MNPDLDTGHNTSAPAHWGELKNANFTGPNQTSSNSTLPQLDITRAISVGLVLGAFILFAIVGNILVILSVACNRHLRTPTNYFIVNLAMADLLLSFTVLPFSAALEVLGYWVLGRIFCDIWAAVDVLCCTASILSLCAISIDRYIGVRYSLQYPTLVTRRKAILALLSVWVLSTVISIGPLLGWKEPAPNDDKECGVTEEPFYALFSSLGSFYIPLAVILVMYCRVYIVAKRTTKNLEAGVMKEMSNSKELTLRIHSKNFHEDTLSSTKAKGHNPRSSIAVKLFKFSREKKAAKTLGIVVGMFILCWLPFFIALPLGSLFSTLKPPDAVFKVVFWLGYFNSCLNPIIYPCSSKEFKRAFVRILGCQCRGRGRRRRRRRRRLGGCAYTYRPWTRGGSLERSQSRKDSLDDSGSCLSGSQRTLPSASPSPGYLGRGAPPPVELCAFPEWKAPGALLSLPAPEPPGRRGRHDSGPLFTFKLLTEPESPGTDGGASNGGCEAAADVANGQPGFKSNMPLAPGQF
Put plainly: Radioligand binding, α1B adrenergic receptor. The settings on record: for Ki: Table 9, read-out: hα1B Ki; for selectivity ratio hα1B: Table 10, Ki hα1B divided by Ki hGAL3.

For experiment [5], the target named is T5, human α2A adrenoceptor (Homo sapiens, UniProt P08913).
T5 construct: expressed in transfected cells
T5 sequence (P08913 1-465): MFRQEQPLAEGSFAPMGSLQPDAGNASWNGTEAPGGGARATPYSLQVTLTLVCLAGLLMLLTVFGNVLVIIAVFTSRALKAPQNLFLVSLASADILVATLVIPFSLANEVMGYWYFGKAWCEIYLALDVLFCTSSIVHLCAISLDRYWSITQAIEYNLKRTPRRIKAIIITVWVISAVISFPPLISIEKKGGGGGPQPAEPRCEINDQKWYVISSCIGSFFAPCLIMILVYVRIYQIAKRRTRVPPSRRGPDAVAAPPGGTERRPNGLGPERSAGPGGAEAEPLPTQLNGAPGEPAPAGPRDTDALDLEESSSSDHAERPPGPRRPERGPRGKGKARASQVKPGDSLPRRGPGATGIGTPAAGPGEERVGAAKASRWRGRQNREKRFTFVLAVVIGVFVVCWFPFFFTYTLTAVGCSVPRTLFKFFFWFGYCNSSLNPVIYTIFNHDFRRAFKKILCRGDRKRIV
Put plainly: Radioligand binding, α2A adrenergic receptor. Particulars: for Ki: Table 9, read-out: hα2A Ki; for selectivity ratio hα2A: Table 10, Ki hα2A divided by Ki hGAL3.
Description: as §2, §1

T2 sequence (P34969 1-445 isoform P34969-2): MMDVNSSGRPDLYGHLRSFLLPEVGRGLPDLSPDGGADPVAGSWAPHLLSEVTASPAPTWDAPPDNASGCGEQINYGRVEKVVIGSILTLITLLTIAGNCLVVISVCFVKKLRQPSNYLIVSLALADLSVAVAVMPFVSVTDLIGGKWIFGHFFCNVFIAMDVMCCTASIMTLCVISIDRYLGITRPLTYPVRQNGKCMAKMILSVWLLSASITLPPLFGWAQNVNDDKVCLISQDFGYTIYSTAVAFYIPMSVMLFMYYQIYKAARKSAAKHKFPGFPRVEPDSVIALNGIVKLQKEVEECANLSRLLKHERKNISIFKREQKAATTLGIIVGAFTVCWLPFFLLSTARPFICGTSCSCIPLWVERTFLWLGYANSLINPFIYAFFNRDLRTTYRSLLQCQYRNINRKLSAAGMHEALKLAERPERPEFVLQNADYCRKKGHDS

`O=C1C(=Nc2ccc(C(F)(F)F)cc2)c2ccccc2N1c1ccccc1` [Example 95, 1-PHENYL-3-[[4-(TRIFLUOROMETHYL)PHENYL]IMINO]-1,3-DIHYDRO-2H-INDOL-2-ONE]: in experiment [1], the Ki was found to be 3.47 µM and the “selectivity ratio r5HT2C” value is over 100. Also, in experiment [2], the Ki was 11.6 µM and the “selectivity ratio h5HT7” value is on record as over 100. In experiment [3], the Ki was 13.1 µM and the “selectivity ratio hα1A” value was over 100. In addition, in experiment [4], the Ki amounted to 32.5 µM and the “selectivity ratio hα1B” value is over 100. For the same compound, in experiment [5], the Ki stood at 30.1 µM and the “selectivity ratio hα2A” value is listed as over 100.

As to `O=C1C(=Nc2ccc(Cl)cc2)c2ccccc2N1c1ccccc1` [Example 97, 3-[(4-CHLOROPHENYL)IMINO]-1-PHENYL-1,3-DIHYDRO-2H-INDOL-2-ONE], in experiment [1], the Ki is 1.95 µM and the “selectivity ratio r5HT2C” value was over 30. In addition, in experiment [2], the Ki was 11.3 µM and the “selectivity ratio h5HT7” value is recorded as over 100. Also, in experiment [3], the Ki turned out to be 16.9 µM and the “selectivity ratio hα1A” value is recorded as over 100. For the same compound, in experiment [4], the Ki turned out to be 45.8 µM and the “selectivity ratio hα1B” value is recorded as over 100. In addition, in experiment [5], the Ki came to 13.6 µM and the “selectivity ratio hα2A” value is given as over 100.

As to `O=C1C(=Nc2ccc(Br)cc2)c2ccccc2N1c1ccccc1` [Example 98, 3-[(4-BROMOPHENYL)IMINO]-1-PHENYL-1,3-DIHYDRO-2H-INDOL-2-ONE], in experiment [1], the Ki worked out at 2.26 µM and the “selectivity ratio r5HT2C” value is reported as over 30. Besides, in experiment [2], the inhibition constant (Ki) was 8.46 µM and the “selectivity ratio h5HT7” value was over 100. Further, in experiment [3], the Ki turned out to be 14.5 µM and the “selectivity ratio hα1A” value is over 100. In experiment [4], the Ki is 31.7 µM and the “selectivity ratio hα1B” value is on record as over 100. Also, in experiment [5], the Ki was 23.2 µM and the “selectivity ratio hα2A” value is given as over 100.
